# ChEMBL document CHEMBL1201862, “PubChem BioAssay data set” (2004)
# Activity calls are given as the source filed them.
# What was measured:
# [1] = biological target: T1, Apoptotic protease-activating factor 1 (Homo sapiens, UniProt O14727); type: functional
# T1 sequence (O14727 whole entry): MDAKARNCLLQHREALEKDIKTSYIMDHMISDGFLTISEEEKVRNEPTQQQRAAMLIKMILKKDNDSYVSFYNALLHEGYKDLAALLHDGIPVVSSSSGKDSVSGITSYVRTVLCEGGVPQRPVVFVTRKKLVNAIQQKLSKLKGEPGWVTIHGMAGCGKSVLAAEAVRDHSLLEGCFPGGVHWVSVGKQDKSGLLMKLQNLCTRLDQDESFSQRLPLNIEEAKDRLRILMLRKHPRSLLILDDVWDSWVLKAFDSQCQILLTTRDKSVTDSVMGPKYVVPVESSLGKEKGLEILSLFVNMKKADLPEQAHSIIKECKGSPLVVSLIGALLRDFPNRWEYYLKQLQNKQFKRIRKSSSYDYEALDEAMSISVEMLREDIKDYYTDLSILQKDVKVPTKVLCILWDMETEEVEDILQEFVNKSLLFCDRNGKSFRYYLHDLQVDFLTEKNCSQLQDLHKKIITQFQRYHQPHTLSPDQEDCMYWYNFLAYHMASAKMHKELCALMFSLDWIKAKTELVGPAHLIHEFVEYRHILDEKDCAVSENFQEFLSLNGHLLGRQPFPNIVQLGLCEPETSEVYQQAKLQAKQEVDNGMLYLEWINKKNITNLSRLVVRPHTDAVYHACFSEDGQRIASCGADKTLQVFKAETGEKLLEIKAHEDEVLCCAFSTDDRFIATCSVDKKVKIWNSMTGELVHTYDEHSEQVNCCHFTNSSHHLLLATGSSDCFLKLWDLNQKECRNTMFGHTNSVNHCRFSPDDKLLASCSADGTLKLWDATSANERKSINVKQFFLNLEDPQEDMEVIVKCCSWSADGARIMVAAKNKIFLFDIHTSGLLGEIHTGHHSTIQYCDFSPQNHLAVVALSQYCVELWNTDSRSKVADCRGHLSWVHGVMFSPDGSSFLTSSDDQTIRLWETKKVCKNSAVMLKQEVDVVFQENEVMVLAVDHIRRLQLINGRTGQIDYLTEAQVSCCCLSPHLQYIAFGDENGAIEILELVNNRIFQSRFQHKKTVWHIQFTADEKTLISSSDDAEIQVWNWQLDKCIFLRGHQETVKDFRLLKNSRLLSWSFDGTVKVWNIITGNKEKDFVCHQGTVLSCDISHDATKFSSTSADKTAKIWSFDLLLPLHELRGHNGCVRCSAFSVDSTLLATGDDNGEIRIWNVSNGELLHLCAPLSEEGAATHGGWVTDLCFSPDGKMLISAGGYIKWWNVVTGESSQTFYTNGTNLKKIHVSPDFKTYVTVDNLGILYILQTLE
# [2] = biological target: T2, Small ubiquitin-related modifier 1 (Homo sapiens, UniProt P63165); assay: SUMO1 protein-protein binding blockers, potency – biochemical, FRET, dose response (AID 624383); type: functional; conditions: read-out: IC50_Mean
# [3] = viability loss in HeLa cells – cytotoxicity control for MgcRacGAP inhibitor project, dose response (AID 624300); type: functional
# Streptococcus = assay: GAS UMAA2166 growth inhibition – luminescence, BacTiterGlo, counter-screen for streptokinase expression inhibitor project, dose response (AID 1915); type: functional, organism-based;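 note: potency for reduction of bacterial viability or growth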
# [4] = biological target: 72 kDa type IV collagenase (Homo sapiens, UniProt P08253); assay: Dose Response validation of uHTS RPN11 inhibitor hits using a MMP-2 Fluorescence assay.; type: functional
# Caspase-6 = biological target: T3, Caspase-6 (Homo sapiens, UniProt P55212); assay: inhibition of CASP6 peptide cleavage – biochemical, VEID-R110 fluorescence, cherry-pick, dose response (AID 720632)
# T3 sequence (P55212 whole entry): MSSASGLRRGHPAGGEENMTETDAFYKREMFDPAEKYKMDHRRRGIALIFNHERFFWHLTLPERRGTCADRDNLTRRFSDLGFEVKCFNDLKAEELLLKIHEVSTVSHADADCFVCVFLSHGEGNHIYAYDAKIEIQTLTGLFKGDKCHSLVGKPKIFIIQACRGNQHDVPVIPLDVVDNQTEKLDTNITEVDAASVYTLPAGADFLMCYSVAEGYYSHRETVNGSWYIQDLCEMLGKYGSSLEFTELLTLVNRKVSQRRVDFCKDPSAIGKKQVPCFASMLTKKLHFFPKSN
# [5] = tested on: Streptococcus sp. 'group A'; assay: Streptococcus pyogenes SK(-)GAS viability under kanamycin – luminescence, BacTiterGlo, confirmation, counter-screen for streptokinase expression inhibitor project, dose response (AID 1900); type: functional, organism-based
# [6] = biological target: T2, Small ubiquitin-related modifier 1; assay: SUMO1 protein interaction blockers, potency – biochemical, fluorescence polarization, uHTS hits, dose response (AID 624382); type: functional; conditions: read-out: IC50_Mean
# [7] = biological target: T4, Ubiquitin-conjugating enzyme E2 N (Homo sapiens, UniProt P61088); type: functional;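 note: Dose-response confirmation in a TR-FRET assay detecting UBC13-driven polyubiquitin chain formation, inhibition measured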
# T4 sequence (P61088 whole entry): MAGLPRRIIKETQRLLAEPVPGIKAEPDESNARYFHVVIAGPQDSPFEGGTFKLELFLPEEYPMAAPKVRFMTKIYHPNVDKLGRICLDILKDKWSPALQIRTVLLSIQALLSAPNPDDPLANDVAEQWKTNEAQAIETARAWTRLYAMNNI
# T2 sequence (P63165 whole entry): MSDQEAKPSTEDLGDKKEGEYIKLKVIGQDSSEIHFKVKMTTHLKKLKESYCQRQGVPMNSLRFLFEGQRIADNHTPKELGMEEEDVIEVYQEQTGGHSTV
# 72 kDa type IV collagenase, sequence (P08253 whole entry): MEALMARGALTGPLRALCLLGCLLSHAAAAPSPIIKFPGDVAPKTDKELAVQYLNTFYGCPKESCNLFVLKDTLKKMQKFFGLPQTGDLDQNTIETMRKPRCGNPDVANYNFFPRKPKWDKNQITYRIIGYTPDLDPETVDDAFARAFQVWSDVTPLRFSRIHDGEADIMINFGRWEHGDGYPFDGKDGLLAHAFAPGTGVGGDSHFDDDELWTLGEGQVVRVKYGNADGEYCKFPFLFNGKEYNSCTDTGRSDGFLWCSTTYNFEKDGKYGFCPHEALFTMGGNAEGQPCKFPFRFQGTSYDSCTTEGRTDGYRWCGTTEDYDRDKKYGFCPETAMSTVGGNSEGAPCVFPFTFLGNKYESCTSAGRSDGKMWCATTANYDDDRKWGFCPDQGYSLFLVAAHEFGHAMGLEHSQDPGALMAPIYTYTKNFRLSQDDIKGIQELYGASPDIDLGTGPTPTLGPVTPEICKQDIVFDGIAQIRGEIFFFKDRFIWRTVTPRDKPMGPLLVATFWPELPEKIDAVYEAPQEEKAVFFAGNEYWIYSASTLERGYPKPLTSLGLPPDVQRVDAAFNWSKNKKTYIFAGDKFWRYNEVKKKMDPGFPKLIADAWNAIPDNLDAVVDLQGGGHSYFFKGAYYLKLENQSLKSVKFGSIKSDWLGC
smiles,measurement,setting,value
N=C(N)N/N=C/c1ccc(N(c2ccccc2)c2ccccc2)cc1,IC50,[1],28.2 µM (active)
same,IC50,[2],8.67 µM (active)
same,CC50,[3],17.1 µM (active)
same,EC50,Streptococcus,3.39 µM (active)
same,IC50,[4],66.3 µM (active)
same,AC50,Caspase-6,10.1 µM (active)
same,EC50,[5],2.39 µM (active)
same,IC50,[6],> 66.6 µM (inactive)
same,IC50,[7],8.24 µM (active)
